In patent US20130296311A1, “INHIBITORS OF HCV NS5A” (PRESIDIO PHARMACEUTICALS, INC., priority 2010, published 2013) one finds EC50 data, which are given here for 16 compounds.

The test system of one test is HCV 1b_Huh-Luc/Neo-ET cell line persistently expressing a bicistronic genotype 1b replicon in Huh 7 cells. The test is described as follows: HCV replicon assay (luciferase readout, 72 h). The settings on record: Hepatitis C virus, Huh-7, 72 h, read-out: Inhibition of HCV genotype 1b. The class given is cell-based, HCV genotype 1b. The method, boiled down: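 EC50 values come from a four-parameter fit of luciferase signal as % of untreated control, repeated across several determinations. The signal is from the HCV 1b_Huh-Luc/Neo-ET replicon line, dosed in triplicate one day post-plating and incubated 72 h before Bright-Glo readout.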
In general terms: Replicon systems follow genome replication, usually without infectious particles.
Take `COC(=O)N[C@H](C(=O)N1CCC[C@H]1c1ncc(-c2ccc(C#Cc3ccc(-c4cnc([C@@H]5CCCN5C(=O)[C@@H](NC(=O)OC)C(C)(C)O)[nH]4)cc3)cc2)[nH]1)C(C)(C)O` [Compound 993]: the EC50 is less than 1 nM.
Turning to `CC(C)[C@@H](NC(=O)OC(C)(C)C)C(=O)N1CCC[C@H]1c1ncc(C#Cc2ccc(C#Cc3cnc([C@@H]4CCCN4C(=O)[C@H](NC(=O)OC(C)(C)C)C(C)C)[nH]3)cc2)[nH]1` [Compound 301], the EC50 is greater than 1000 nM.
`O=C(Cc1cccnc1)N[C@@H](C(=O)N1CCC[C@H]1c1cc(-c2ccc(C#Cc3ccc(-c4cnc([C@@H]5CCCN5C(=O)[C@H](NC(=O)Cc5cccnc5)c5ccccc5)[nH]4)cc3)cc2)n[nH]1)c1ccccc1` [Compound 222]: the EC50 was less than 1 nM.
Regarding `COC(=O)N[C@H](C(=O)N1CCC[C@H]1c1ncc(-c2ccc(C#Cc3ccc(-c4cnc([C@@H]5CCCN5C(=O)[C@@H](NC(=O)OC)C(C)(C)O)[nH]4)cc3)cc2)[nH]1)C(C)C` [Compound 994], the EC50 was less than 1 nM.
As to `COC(=O)N[C@@H](C(=O)N1CCC[C@H]1c1ncc(-c2ccc(C#Cc3ccc(-c4cnc([C@@H]5CCCN5C(=O)C5CCN(C)CC5)[nH]4)cc3)cc2)[nH]1)c1ccccc1` [Compound 182], the EC50 is less than 1 nM.
Still for that read-out and setting: to `COC(=O)N[C@@H](C(=O)N1CCC[C@H]1c1ncc(-c2ccc(C#Cc3ccc(-c4cnc([C@@H]5CCCN5C(=O)[C@H](NC(=O)OC)c5ccccc5)[nH]4)cc3)cc2)[nH]1)c1ccccc1` [Compound 156] belongs less than 1 nM.
With `CC(C)[C@@H](NC(=O)C1CC1)C(=O)N1CCC[C@H]1c1ncc(-c2ccc(C#Cc3ccc(-c4cnc([C@@H]5CCCN5C(=O)[C@H](NC(=O)C5CC5)C(C)C)[nH]4)cc3)cc2)[nH]1` [Compound 155], the EC50 lay within 1 to 9.9 nM.
Take `CC[C@@H](C(=O)N1CCC[C@H]1c1ncc(-c2ccc(C#Cc3ccc(-c4cnc([C@@H]5CCCN5C(=O)[C@H](NC(=O)OC)c5ccccc5)[nH]4)cc3)cc2)[nH]1)c1ccccc1` [Compound 258]: the EC50 was less than 1 nM.
`CN(C)[C@@H](C(=O)N1CCC[C@H]1c1ncc(-c2ccc(C#Cc3ccc(-c4cnc([C@@H]5CCCN5C(=O)[C@H](NS(C)(=O)=O)c5ccccc5)[nH]4)cc3)cc2)[nH]1)c1ccccc1` [Compound 228]: the EC50 was less than 1 nM.
With `O=C(N[C@@H](C(=O)N1CCC[C@H]1c1ncc(-c2ccc(C#Cc3ccc(-c4cnc([C@@H]5CCCN5C(=O)[C@H](NC(=O)N5CCCC5)c5ccccc5)[nH]4)cc3)cc2)[nH]1)c1ccccc1)N1CCCC1` [Compound 249], the EC50 was less than 1 nM.

Staying with this test, now noted: Hepatitis C virus, Huh-7, read-out: Inhibition of HCV genotype 1b.
Turning to `CC[C@H](C)[C@H](NC(=O)OC)C(=O)N1CCC[C@H]1c1ncc(-c2ccc(C#Cc3ccc(-c4cnc([C@@H]5CCCN5C(=O)[C@@H](NC(=O)OC)C5CCOCC5)[nH]4)cc3)cc2)[nH]1` [Compound 1220], the EC50 is less than 1 nM.
Consider `COC(=O)N[C@H](C(=O)N1CCN(C(C)=O)C[C@H]1c1ncc(-c2ccc(C#Cc3ccc4nc([C@@H]5CCCN5C(=O)[C@@H](NC(=O)OC)C(C)C)[nH]c4c3)cc2)[nH]1)C(C)C` [Compound 1232], for which the EC50 is less than 1 nM.
`COC(=O)N[C@H](C(=O)N1CCC[C@H]1CNC(=O)c1ccc(C#Cc2ccc3nc([C@@H]4CCCN4C(=O)[C@@H](NC(=O)OC)C(C)C)[nH]c3c2)cn1)C(C)C` [Compound 1240]: the EC50 lay in the range of 10 to 999 nM.
Take `COC(=O)N[C@H](C(=O)N1CCC[C@H]1c1nc2c([nH]1)-c1ccc(C#Cc3ccc4nc([C@@H]5CCCN5C(=O)[C@@H](NC(=O)OC)C5CCOCC5)[nH]c4c3)cc1CCC2)C(C)C` [Compound 1280]: the EC50 is less than 1 nM.
Turning to `COC(=O)N[C@@H](C(=O)N[C@@H](C)c1ncc(-c2ccc(C#Cc3ccc4nc([C@@H]5CCCN5C(=O)[C@H](NC(=O)OC)c5ccccc5)[nH]c4c3)cc2)[nH]1)c1ccccc1` [Compound 1226], the EC50 was less than 1 nM.
Regarding `CC[C@H](NC(=O)OC)C(=O)N1CCC[C@H]1c1ncc(-c2ccc(C#Cc3ccc4nc([C@@H]5CCCN5C(=O)[C@@H](NC(=O)OC)[C@@H](C)OC)[nH]c4c3)cc2)[nH]1` [Compound 1247], the EC50 was less than 1 nM.
